Reference: publication doi:10.1101/2024.08.16.608276v1, “The kinetoplastid kinetochore protein KKT23 acetyltransferase is a structural homolog of GCN5 that acetylates the histone H2A C-terminal tail” (biorxiv, 2024)

Target: T1, KKT23^2–348 (Trypanosoma brucei, UniProt Q38AU6)
T1 construct: gene Tb10.70.0180; full-length recombinant protein (residues 2-348), E. coli, His-tag cut by TEV, monomer, calculated 39 kDa; strain printed for the cell lines only
T1 sequence (Q38AU6 2-348): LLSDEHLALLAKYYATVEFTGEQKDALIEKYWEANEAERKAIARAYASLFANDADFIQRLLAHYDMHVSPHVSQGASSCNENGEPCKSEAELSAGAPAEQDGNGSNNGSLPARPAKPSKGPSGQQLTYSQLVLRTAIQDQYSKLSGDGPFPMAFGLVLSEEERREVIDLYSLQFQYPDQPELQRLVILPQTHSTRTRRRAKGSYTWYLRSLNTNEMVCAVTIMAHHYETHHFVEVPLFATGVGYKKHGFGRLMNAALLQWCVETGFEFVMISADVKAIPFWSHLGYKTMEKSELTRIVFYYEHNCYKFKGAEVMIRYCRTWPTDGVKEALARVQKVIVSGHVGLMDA
Assay: histone acetyltransferase assay, anti-acetyl-lysine immunoblot and mass spectrometry
Format: biochemical
Conditions: co-substrate reconstituted T. brucei nucleosomes (H2A C-terminal tail); up to 200 uM acetyl-CoA; pH 8.0, 30 C, 1 h

CC(=O)SCCNC(=O)CCNC(=O)[C@H](O)C(C)(C)COP(=O)(O)OP(=O)(O)OC[C@H]1O[C@@H](n2cnc3c(N)ncnc32)[C@H](O)[C@@H]1OP(=O)(O)O [acetyl coenzyme A]
histone acetyltransferase assay, anti-acetyl-lysine immunoblot and mass spectrom: recombinant KKT23 was incubated with acetyl-CoA and nucleosomes reconstituted using either T. brucei or H. sapiens
